Tests used:
[1] = system: C. albicans reference strain; test: Permeabilization assay with fluorescent dyes of increasing size; type: cell-based, Candida albicans; conditions: FITC, propidium iodide, ATTO 488 alkyne, rhodamine phalloidin; Pom-1 or Cm-p5 at 2.5 µg/mL and 10 µg/mL, 2 h, 37 °C; Triton X-100 0.2% (w/v) solution, last 10 min; fluorescence; triplicate
Protocol: For this, 2.5 × 10^4 cells/mL of the C. albicans reference strain were incubated in 200 µL of RPMI-1640 medium supplemented with either Pom-1 or Cm-p5 at final concentrations of 2.5 µg/mL and 10 µg/mL and incubated for 2 h at 37 °C. For the positive control, 100 µL of a 0.2% (w/v) solution of Triton X-100 was added 10 min prior to the end of the 2 h incubation time and for the negative control, no agent was added (untreated). After incubation, the tubes were centrifuged at 11,000 ×g and the supernatant was discarded. Afterwards, the cells were washed with once with PBS and after addition of 5 µL dye and 195 µL PBS (final concentration of dye: 5 µL/mL) the cell suspension was centrifuged at 11,000 ×g for 2 min. […] Subsequently the yeast cells were washed 3x with PBS, resuspended in 200 µL of PBS and pipetted into flat-bottomed polystyrene microtiter plates with 96 wells (Sarstedt AG and Co. KG, Nümbrecht, Germany) and fluorescence measurements were conducted at an excitation wavelength of 498 nm (FITC), 535 nm (propidium iodide), 500 nm (Atto488), and 540 nm (rhodamine phalloidin) and an emission of 517 nm (FITC), 617 nm (propidium iodide), 520 nm (Atto488), 565 nm (rhodamine phalloidin) with a Tecan infinite F200 microplate reader (Tecan Group Ltd., Männedorf, Switzerland). […]

[2] = system: human dermal fibroblasts (HDF); test: Resazurin viability assay for cell culture (HDF); type: cell-based; conditions: detergent cell lysis control
Protocol: (§1) Adenocarcinomic human alveolar basal epithelial cells (A549) (purchased from the ATCC, Manassas, VA, USA, CRM-CCL-185)[67] and human dermal fibroblasts (HDFs) (purchased from tebu-bio GmbH, Offenbach, Germany) were used[68] for the experiments. Cultivation was conducted in DMEM with FBS (10% (w/v), 15% (w/v)), MEM NEAAs (1% (w/v)), and penicillin–streptomycin (100 U/mL, 1% (w/v)) at 37 °C in an incubator containing 5% CO2. To detect the viability of human cells, a resazurin reduction assay was performed. For this, 2 × 10^4 cells per well of a 96-well plate were incubated in 200 µL DMEM with additives at 37 °C and 5% CO2. After removing the medium, 100 µL of the medium and 100 µL of a peptide/antifungal solution (2.5 µg/mL, 25 µg/mL) were added. After incubation for 24 h at 37 °C and 5% CO2, 20 µL of a resazurin solution (0.15 mg/mL) were added into each well, and the cells were incubated again for 24 h at 37 °C and 5% CO2. Fluorescence measurement (excitation wavelength—535 nm, emission wavelength—595 nm) of the converted resorufin was then performed using a Tecan Infinite F200 microplate reader (Tecan Group Ltd., Männedorf, Switzerland).

[3] = system: A549 cells; test: Resazurin viability assay for cell culture (A549); type: cell-based, human; conditions: detergent cell lysis control
Protocol: as §1

[4] = system: C. albicans laboratory strain and clinical isolates; test: Resazurin reduction viability assay of planktonic cells; type: cell-based, Candida albicans; conditions: for strains whose viability could not be reduced to zero: 1x ED: 2 µg/mL amphotericin B, 8 µg/mL fluconazole
Protocol: KG, Nümbrecht, Germany) at 37 °C with shaking at 900 rpm on an Eppendorf shaker. The quantification of viable yeast cells was carried out using a Resazurin-Reduction-Assay[86]. Accordingly, the cells were exposed to 20 µL of a 0.15 mg/mL resazurin solution for 2 h and subsequently the amount of converted resorufin was determined with fluorescence measurements at an excitation wavelength of 535 and an emission of 595 nm with a Tecan infinite F200 microplate reader (Tecan Group Ltd., Männedorf, Switzerland).

[5] = system: C. albicans clinical isolate 23; test: Resazurin viability assay of clinical isolate 23; type: cell-based, Candida albicans; conditions: antifungal alone at 1x ED
Protocol: The viability of C. albicans cells was assessed following the guidelines of the Clinical and Laboratory Standards Institute (M27-A3)[86]. Accordingly, 2.5 × 10^4 yeast cells/mL were cultured in 200 µL of RPMI-1640 medium in the presence of peptide (Pom-1 to Pom-1 F) and amphotericin B or fluconazole in different concentrations (0.1x ED/MBIC and 0.5x ED/MBIC) in flat-bottomed polystyrene microtiter plates with 96 wells (Sarstedt AG and Co. KG, Nümbrecht, Germany) at 37 °C with shaking at 900 rpm on an Eppendorf shaker. The quantification of viable yeast cells was carried out using a Resazurin-Reduction-Assay[86]. Accordingly, the cells were exposed to 20 µL of a 0.15 mg/mL resazurin solution for 2 h and subsequently the amount of converted resorufin was determined with fluorescence measurements at an excitation wavelength of 535 and an emission of 595 nm with a Tecan infinite F200 microplate reader (Tecan Group Ltd., Männedorf, Switzerland).
Figure S4. Inherent resilience to aggregation by isolate 23 and marginal reduction of viability by further raised concentrations of antifungal and peptide combinations. (A) Microscopic analysis using a Leica DMi8 coded (Leica Microsystems CMS GmbH, Wetzlar, Germany) microscope of C. albicans laboratory strain and clinical isolate 23 with and without treatment with Pom-1. The pictures were taken after an incubation time of 2 h. […]

[6] = system: C. albicans laboratory strain and clinical isolates; test: Biofilm formation, crystal violet assay; type: cell-based, Candida albicans
Protocol: In order to evaluate the antifungal effects of the Pom-1 derivatives combined with amphotericin B or fluconazole on biofilm formation, a crystal violet assay was performed[84],[85]. For this, 2.5 × 10^4 yeast cells/mL were incubated in 200 µL of RPMI-1640 medium supplemented with amphotericin B, fluconazole and Pom-1 to Pom-1 F in flat-bottomed polystyrene microtiter plates with 96 wells for 24 h at 37 °C without agitation. Subsequently, the planktonic phase was removed, the remaining cells attached to the wells were washed twice with 200 µL of demineralized water and exposed to 200 µL of 0.1% (w/v) crystal violet solution for 15 min. Afterwards, the solution was removed and the cells were washed again twice with 200 µL of demineralized water and the plates were left to dry for 24 h at 25 °C. To dissolve the stain, 200 µL of 30% acetic acid was added and transferred to a new plate after 15 min. […] By comparing the resulting data against the untreated controls, the efficacy of the agents could be assessed.

Molecule	permeabilization of C. albicans cells for fluorescent dyes [1]	cell viability of HDF cells [2]	cell viability of A549 cells [3]	strains whose viability could not be reduced to zero [4]	isolates with viability reduction (death count) ([4]; fluconazole only, 0.1x ED)	ratio of completely killed C. albicans isolates ([4]; fluconazole only, 1x ED (8 µg/mL), 28 strains) [%]	effect on isolate 23 [5]	strains with complete biofilm inhibition (death count) ([6]; amphotericin B only, 0.1x ED)	strains with complete biofilm inhibition (death count) ([6]; antifungal only, 0.5x ED)	strains with complete biofilm inhibition ([6]; antifungal only, 0.5x ED, 21 strains) [%]	strains with complete inhibition of biofilms ([6]; antifungal only, 1x ED (2 µg/mL), 21 strains) [%]	strains with complete inhibition of biofilms (death count) ([6]; antifungal only, 1x ED (2 µg/mL), crystal violet, 24 h, 37 °C, triplicate)	strains killed completely ([4]; amphotericin B only, 0.5x ED, planktonic cells, 28 strains) [%]	isolates against which fully active (zero viability) ([4]; amphotericin B only, 1x ED (2 µg/mL), planktonic cells, 28 strains) [%]	isolates against which fully active (death count) ([4]; amphotericin B only, 1x ED (2 µg/mL), planktonic cells, resazurin, triplicate)
Triton X-100	permeabilized Candida cells for all dyes	zero	zero												
OC(Cn1cncn1)(Cn1cncn1)c1ccc(F)cc1F [fluconazole]				12 of 28 strains	3 isolates of 28	57	unaffected								
C[C@@H]1[C@H](O)[C@@H](C)/C=C/C=C/C=C/C=C/C=C/C=C/C=C/[C@H](O[C@@H]2O[C@H](C)[C@@H](O)[C@H](N)[C@@H]2O)C[C@@H]2O[C@](O)(C[C@@H](O)C[C@@H](O)[C@H](O)CC[C@@H](O)C[C@@H](O)CC(=O)O[C@H]1C)C[C@H](O)[C@H]2C(=O)O [amphotericin B]				21 of 28 strains			unaffected	totally failed	2 of 21	9.5	52	11 of 21	7	25	7 of 28

Reference: PMC12241370, “Anti-biofilm peptides can rescue fluconazole and amphotericin B efficacies against Candida albicans” (Scientific Reports, 2025)
